Columns and labels:
[1] = tested on: MDA-MB-436 cells; experiment: Assay on inhibitory activity for MDA-MB-436 cell proliferation (CCK-8); type: cell-based; settings: 168 h incubation, CCK-8, absorbance at 450 nm
Protocol: 1.1 Assay on inhibitory activity for MDA-MB-436 cell proliferation MDA-MB-436 cells in a good growth state were collected into a centrifuge tube, adjusted to a cell density of 2×10^4 cells/mL using a complete medium (DMEM high glucose+[…]+1× insulin-transferrin-selenium (JTS-G)+16 μg/mL reduced glutathione), and seeded in a 96-well plate (100 μL/well), and the plate was incubated overnight in a cell incubator Compounds were added using a pipettor, such that the final concentrations of the compounds were 400 nM-0.02 nM. The wells were set in duplicate, and a control well was set. After 168 h of incubation in the cell incubator, the assay reagent CCK-8 (manufacturer: Dojindo Laboratories, Beijing; 10 μL/well) was added. After 1.5 h of incubation in the cell incubator, the absorbance was measured at 450 nm on a PerkinElmer Envision microplate reader.

[2] = molecular target: T1, PARP1 (Homo sapiens, UniProt P09874); experiment: Assay on PARP1 protein activity (chemiluminescence assay kit); type: biochemical; settings: PARP1 enzyme, 1 h room temperature
T1 construct: purchased BPS 80551

[3] = molecular target: T1, PARP1; experiment: PARP1-Tracer activity assay (FP method); type: binding
Protocol: (§1) The enzyme inhibition activity of the compounds against PARP1/2-Tracer was tested using the FP method. First, 100 nL of inhibitors with a final concentration of 1% DMSO were transferred to a 384-well reaction plate (Corning 4514) using Echo655. Then, 5 μL of PARP1/2 (BPS, Cat #80501/80502) enzyme solution was added to each well, followed by centrifugation at 1000 RPM for 1 min at room temperature, and the reaction was allowed to proceed for 10 min. Subsequently, 5 μL of Tracer (ICE, Cat #001315-009) solution was added to each well, followed by centrifugation at 1000 RPM for 1 min at room temperature, and the reaction was allowed to proceed for 60 min. PARP1/2 and Tracer were prepared in a buffer containing 50 mM Tris (pH 8.0), 10 mM MgCl2, 150 mM NaCl, and 0.001% Triox-100, with final concentrations of 5/10 nM and 2.5 nM, respectively. Finally, the FP signal was read using BMG (PHERAstar FSX), and the IC50 values and nonlinear regression curve fitting were obtained using GraphPad Prism software.

[4] = molecular target: T2, PARP2 (Homo sapiens, UniProt Q9UGN5); experiment: PARP2-Tracer activity assay (FP method); type: binding
T2 construct: purchased BPS 80502
Protocol: as §1

T1 sequence (P09874 whole entry): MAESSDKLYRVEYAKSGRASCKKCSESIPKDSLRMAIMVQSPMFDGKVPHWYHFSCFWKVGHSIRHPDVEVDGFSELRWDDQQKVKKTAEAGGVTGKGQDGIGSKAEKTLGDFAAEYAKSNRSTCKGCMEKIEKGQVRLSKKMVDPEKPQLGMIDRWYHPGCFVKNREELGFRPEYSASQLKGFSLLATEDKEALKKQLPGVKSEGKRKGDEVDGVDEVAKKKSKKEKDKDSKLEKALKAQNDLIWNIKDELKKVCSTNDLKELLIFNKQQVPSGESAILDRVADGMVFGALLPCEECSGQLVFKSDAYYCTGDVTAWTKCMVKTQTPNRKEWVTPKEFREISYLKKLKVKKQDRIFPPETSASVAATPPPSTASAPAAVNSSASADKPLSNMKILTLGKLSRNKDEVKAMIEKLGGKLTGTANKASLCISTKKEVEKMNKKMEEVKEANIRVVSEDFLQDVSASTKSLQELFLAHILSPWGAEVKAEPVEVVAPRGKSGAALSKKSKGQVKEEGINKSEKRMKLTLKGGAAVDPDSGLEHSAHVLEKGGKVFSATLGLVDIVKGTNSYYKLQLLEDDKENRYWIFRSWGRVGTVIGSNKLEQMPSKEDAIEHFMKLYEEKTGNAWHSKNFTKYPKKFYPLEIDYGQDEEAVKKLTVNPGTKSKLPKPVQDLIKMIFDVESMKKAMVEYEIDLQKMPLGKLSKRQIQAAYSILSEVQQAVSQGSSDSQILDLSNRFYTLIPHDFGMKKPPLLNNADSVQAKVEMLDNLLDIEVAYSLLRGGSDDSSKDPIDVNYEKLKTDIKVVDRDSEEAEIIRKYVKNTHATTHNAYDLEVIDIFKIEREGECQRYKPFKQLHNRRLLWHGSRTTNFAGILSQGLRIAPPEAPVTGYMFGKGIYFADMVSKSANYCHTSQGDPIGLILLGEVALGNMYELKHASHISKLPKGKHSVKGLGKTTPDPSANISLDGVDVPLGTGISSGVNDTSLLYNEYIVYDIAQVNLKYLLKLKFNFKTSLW
T2 sequence (Q9UGN5 whole entry): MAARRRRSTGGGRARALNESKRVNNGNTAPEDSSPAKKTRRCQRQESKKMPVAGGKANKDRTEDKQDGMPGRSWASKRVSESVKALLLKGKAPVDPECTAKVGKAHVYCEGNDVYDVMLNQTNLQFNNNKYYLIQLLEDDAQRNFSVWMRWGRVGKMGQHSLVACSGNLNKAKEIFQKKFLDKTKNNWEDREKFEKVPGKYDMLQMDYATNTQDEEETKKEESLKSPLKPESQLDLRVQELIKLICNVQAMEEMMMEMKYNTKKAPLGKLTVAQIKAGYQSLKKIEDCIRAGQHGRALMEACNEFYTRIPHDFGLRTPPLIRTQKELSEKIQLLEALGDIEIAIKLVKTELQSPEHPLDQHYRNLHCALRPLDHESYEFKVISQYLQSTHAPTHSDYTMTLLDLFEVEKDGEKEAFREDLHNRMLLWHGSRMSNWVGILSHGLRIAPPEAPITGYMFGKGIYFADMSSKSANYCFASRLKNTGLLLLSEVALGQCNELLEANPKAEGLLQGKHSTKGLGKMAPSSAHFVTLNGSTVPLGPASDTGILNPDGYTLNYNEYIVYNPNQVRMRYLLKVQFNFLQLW

In the case of `CNC(=O)n1cc2c(n1)CN(C1CN(Cc3ccc4cc(C(F)(F)F)c(=O)[nH]c4c3)[C@@H]1C)C2` (single isomer, unassigned) [Compound 35], the IC50 [1] is reported as ≤ 0.05 µM.

`CNC(=O)n1cc2c(n1)CN(C1CN(Cc3ccc4cc(C(F)(F)F)c(=O)[nH]c4c3)[C@H]1C)C2` (single isomer, unassigned) [Compound 36] was tested, and the IC50 ([1]; Homo sapiens, MDA-MB-436) was ≤ 0.05 µM and the IC50 [2] was ≤ 0.01 µM.

For `CNC(=O)n1cc2c(n1)CN(C1CN(Cc3ccc4cc(C5CC5)c(=O)[nH]c4c3)[C@@H]1C)C2` (single isomer, unassigned) [Compound 40], the IC50 [1] was ≤ 0.05 µM.

For `CCc1cc2ccc(CN3CC(N4Cc5cn(C(=O)NC)nc5C4)C3)cc2[nH]c1=O` [Compound 1], the IC50 ([1]; Homo sapiens, MDA-MB-436) was ≤ 0.05 µM.

`CNC(=O)n1cc2c(n1)CN(C1CN(Cc3ccc4cc(C5CC5)c(=O)[nH]c4c3)C1)C2` [Compound 2] was tested, and the IC50 [2] was ≤ 0.001 µM.

`CCc1cc2ccc(CN3CC(N4Cc5cn(C(=O)NC6CC6)nc5C4)C3)cc2[nH]c1=O` [Compound 4] was tested, and the IC50 ([1]; Homo sapiens, MDA-MB-436) was ≤ 0.05 µM.

For `CCc1cc2ncc(CN3CC(N4Cc5cn(C(=O)NC6CC6)nc5C4)C3)cc2[nH]c1=O` [Compound 5], the IC50 ([1]; Homo sapiens, MDA-MB-436) was ≤ 0.05 µM.

In the case of `CCc1cc2ncc(CN3CC(N4Cc5nc(C(=O)NC)sc5C4)C3)cc2[nH]c1=O` [Compound 7], the IC50 ([1]; Homo sapiens, MDA-MB-436) is reported as ≤ 0.05 µM.

In the case of `CCc1cc2ccc(CN3CC(N4Cc5cn(C(=O)NC(C)C)nc5C4)C3)cc2[nH]c1=O` [Compound 9], the IC50 ([1]; Homo sapiens, MDA-MB-436) is reported as ≤ 0.05 µM.

With `CCc1cc2ncc(CN3CC(N4Cc5cn(C(=O)NC)nc5C4)C3)cc2[nH]c1=O` [Compound 10] the IC50 ([1]; Homo sapiens, MDA-MB-436) was ≤ 0.05 µM.

With `O=C(NC1CC1)n1cc2c(n1)CN(C1CN(Cc3ccc4cc(C5CC5)c(=O)[nH]c4c3)C1)C2` [Compound 11] the IC50 ([1]; Homo sapiens, MDA-MB-436) was ≤ 0.05 µM.

For `CCNC(=O)n1cc2c(n1)CN(C1CN(Cc3ccc4cc(CC)c(=O)[nH]c4c3)C1)C2` [Compound 13], the IC50 ([1]; Homo sapiens, MDA-MB-436) was ≤ 0.05 µM.

`[2H]C([2H])([2H])NC(=O)n1cc2c(n1)CN(C1CN(Cc3ccc4cc(CC)c(=O)[nH]c4c3)C1)C2` [Compound 14] was tested, and the IC50 ([1]; Homo sapiens, MDA-MB-436) was ≤ 0.05 µM.

With `CNC(=O)n1cc2c(n1)CN(C1CN(Cc3ccc4c5c(c(=O)[nH]c4c3)CCC5)C1)C2` [Compound 15] the IC50 ([1]; Homo sapiens, MDA-MB-436) was ≤ 0.05 µM.

In the case of `CCc1cc2c(F)cc(CN3CC(N4Cc5cn(C(=O)NC)nc5C4)C3)cc2[nH]c1=O` [Compound 16], the IC50 ([1]; Homo sapiens, MDA-MB-436) is reported as ≤ 0.05 µM.

With `CNC(=O)n1cc2c(n1)CN(C1CN(Cc3ccc4cc(C(F)(F)F)c(=O)[nH]c4c3)C1)C2` [Compound 24] the IC50 [3] was 0.00248 µM, the IC50 [2] was ≤ 0.001 µM and the IC50 [4] was > 0.5 µM.

In the case of `CCc1cc2ccc(CN3C[C@@H](N4Cc5cn(C(=O)NC)nc5C4)[C@@H]3C)cc2[nH]c1=O` [Compound 39], the IC50 ([1]; Homo sapiens, MDA-MB-436) is reported as ≤ 0.05 µM.

In the case of `CNC(=O)n1cc2c(n1)CN([C@@H]1CN(Cc3ccc4cc(C5CC5)c(=O)[nH]c4c3)[C@H]1C)C2` [Compound 43], the IC50 ([1]; Homo sapiens, MDA-MB-436) is reported as ≤ 0.05 µM.

In the case of `CCc1nc2ccc(CN3C[C@H](N4Cc5cn(C(=O)NC)nc5C4)[C@@H]3C)cc2[nH]c1=O` [Compound 45], the IC50 [3] is reported as 0.00252 µM, the IC50 [2] is reported as ≤ 0.001 µM and the IC50 [4] is reported as > 0.5 µM.

For `CCc1cc2ncc(CN3C[C@H](N4Cc5cn(C(=O)NC)nc5C4)[C@@H]3C)cc2[nH]c1=O` [Compound 47], the IC50 [1] was ≤ 0.05 µM.
